Results from patent publication US20260364184A1, “COMPOUND BASED ON OXOISOINDOLINYL-SUBSTITUTED TETRAHYDROPYRIMIDINE-DIONE AND USE THEREOF” (GLUETACS THERAPEUTICS (SHANGHAI) CO., LTD., priority 2023, published 2026).

Experiments:
[1] = system: Human large cell immunoblastic lymphoma cell line SR; experiment: Inhibition of SR cell proliferation (CellTiter luminescent viability); assay type: cell-based; details: Table IE1, CDK4/6 inhibitor-based, 96 hours, read-out: Inhibitory activity (IC50, nM) on tumor cell proliferation, SR
Procedure, shortened: (§1)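 Cells are seeded in 96-well plates, cultured at 37 °C, 5% CO2, and treated next day with 5-fold serial compound dilutions (stock series from 2000 μM; 0.5 μL into 100 μL medium). Viability is read by CellTiter-Meiluncell luminescence after the set exposure, and IC50 is taken from growth-inhibition curves.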

[2] = system: Human myeloid monocytic leukemia cell line (MV-4-11); experiment: Inhibition of MV-4-11 cell proliferation (CellTiter luminescent viability); assay type: cell-based; details: Table IE1, CDK4/6 inhibitor-based; MV-4-11, 96 hours; read-out: Inhibitory activity (IC50, nM) on tumor cell proliferation, MV-4-11
Procedure, shortened: as §1

[3] = system: Human acute lymphocytic leukemia T lymphocytes cell line (CCRF-CEM); experiment: Inhibition of CCRF-CEM cell proliferation (CellTiter luminescent viability); assay type: cell-based; details: for IC50: Table IE1, CDK4/6 inhibitor-based, 96 hours, read-out: Inhibitory activity (IC50, nM) on tumor cell proliferation, CCRF-CEM
[4] = system: Human breast cancer cell line MCF-7; experiment: Inhibition of MCF-7 cell proliferation (CellTiter luminescent viability); details: Table IE1, CDK4/6 inhibitor-based; MCF-7, 96 hours; read-out: Inhibitory activity (IC50, nM) on tumor cell proliferation, MCF-7
Experimental: (§2) The tumor cells used herein were cultured in a cell culture medium listed in table 3 at 37 °C in an incubator with 5% CO2. Prior to experimentation, all cell lines used were correctly identified by STR profiling, and tested negative for mycoplasma contamination using a mycoplasma detection kit through routine screenings.
(§3) The IC50 values of the compounds of the present disclosure (including the compounds in Table 1, Table 2, and Examples 1-468) were determined using the CellTiter-Meiluncell Luminescent Cell Viability Assay Kit from Dalian Meilun Biotech Co., Ltd. The detailed procedure is as follows: Tumor cells were seeded in 96-well cell culture plates at the densities specified in Table 4. On the following day, the test compounds of the present disclosure were subjected to serial dilution. The dilution can be performed according to one of the following two methods: • (1) The first dilution method: The test compounds of the present disclosure (including the compounds in Table 1, Table 2, and Examples 1-468) were subjected to 5-fold serial dilutions starting from a highest concentration of 2000 μM, resulting in a total of 9 concentrations from high to low (2000, 400, 80, 16, 3.2, 0.64, 0.128, 0.0256, 0.00512 μM). Subsequently, 0.5 μL of the test compound dilution was transferred into the 96-well plate containing the cells, with each well containing 100 μL of cell culture medium. […] Into the 96-well plate, the diluted test compounds and corresponding detection reagents were added, resulting in final test compound concentrations of 500 nM and 10 nM, respectively. The experimental procedure is described below using the diluted 2 μM test compound as an example.
(§4) 0.5 μL of the aforementioned diluted compound of the present disclosure (including the compounds in Table 1, Table 2, and Examples 1-468) was added to the seeded cells in 100 μL of medium, yielding a final test compound concentration of 10 nM. After the cells were treated with the compounds of the present disclosure for a specified period, the cell viability assay reagent was added to the culture medium according to the kit's instructions to determine cell viability. […] All controls were treated using the same procedure as the compounds of the present disclosure. The growth inhibition curves for the compounds of the present disclosure were plotted using Prism GraphPad software, and the IC50 values were calculated therefrom.

[5] = system: Human Acute T Lymphoblastic Leukemia Cells (Molt-4); experiment: Inhibition of Molt-4 cell proliferation (CellTiter luminescent viability); assay type: cell-based
[6] = system: Human lung cancer cell line (H292); experiment: Inhibition of H292 cell proliferation (CellTiter luminescent viability); assay type: cell-based; details: NCI-H292, Table IE2, CDK4/6 inhibitor-based, 96 hours
[7] = system: Human prostate cancer cell line (NCI-H358); experiment: Inhibition of NCI-H358 cell proliferation (CellTiter luminescent viability); details: Table IH1, BCL-2 inhibitor-based, 96 hours
Experimental: as §2, §3, §4

[8] = biological target: T1, BCL-2 (Homo sapiens, UniProt P10415); experiment: Western blot degradation of BCL-2; assay type: cell-based; details: Molt-4 Cell; 24 hours
T1 construct: expression of target proteins in cells; endogenous in cells
Experimental: Conventional Western blot assay was performed to evaluate the effects of the compounds of the present disclosure on the expression of target proteins in cells.
(1) Cell Seeding and Protein Harvesting: The selected cells were processed according to the cell seeding procedure and protein harvesting procedure in Table II-2.
(2) To the collected supernatant, 5×SDS sample loading buffer was added, followed by denaturation at 95 °C for 5 minutes. The denatured samples were then separated by SDS-PAGE electrophoresis on a polyacrylamide gel. Proteins were transferred to a nitrocellulose membrane (0.45 μm NC membrane), blocked with blocking buffer at room temperature for 1 hour, and subjected to antibody incubation and development procedures according to the antibody manufacturer's instructions (Cell Signaling Technology).
Half-Maximal Degradation Concentration value (the drug concentration required for degrading proteins by 50%, abbreviated as DC50) reads method: comparing the grayscale values of Western blot bands from drug-treated samples with those from blank DMSO-treated controls, and identifying the drug concentration range at which the grayscale value is half that of the DMSO-treated control bands.
DC50 values can be calculated using ImageJ software to measure grayscale values of Western blot bands from drug-treated samples. The concentration-response curve is fitted to estimate the drug concentration corresponding to half the grayscale value.
Target protein remaining (%) refers to the percentage of target protein remaining in cells after treatment with protein degrader compounds.
Calculation method for target protein remaining (%): Use ImageJ software to measure grayscale values of Western blot bands from drug (protein degrader)-treated samples. The grayscale value of drug-treated bands is divided by that of internal control protein bands, and the resulting quotient is normalized to obtain the relative percentage of remaining target protein after protein degrader treatment.
Target protein degradation rate (%)=1−target protein remaining (%).

T1 sequence (P10415 whole entry): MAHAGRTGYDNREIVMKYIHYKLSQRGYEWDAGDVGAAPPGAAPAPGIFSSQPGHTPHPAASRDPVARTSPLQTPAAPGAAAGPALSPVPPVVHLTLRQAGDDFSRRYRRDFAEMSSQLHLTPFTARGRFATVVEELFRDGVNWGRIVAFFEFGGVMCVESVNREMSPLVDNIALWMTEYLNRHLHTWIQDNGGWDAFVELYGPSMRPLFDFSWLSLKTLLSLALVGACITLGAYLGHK

## Cc1nc2c(F)cc(-c3nc(Nc4ccc(N5CCN(Cc6ccc7c(c6)CN(N6CCC(=O)NC6=O)C7=O)CC5)cn4)ncc3F)cc2n1C(C)C [GT-06672, 1-(5-((4-(6-((5-fluoro-4-(4-fluoro-1-isopropyl-2-methyl-1H-benzo[d]imidazol-6-yl)pyrimidin-2-yl)amino)pyridin-3-yl)piperazin-1-yl)methyl)-1-oxoisoindolin-2-yl)dihydropyrimidine-2,4 (1H,3H)-dione]
[1]
  IC50: 100 to 300 nM
[2]
  IC50: 10 to 50 nM
[3]
  IC50: 400 to 800 nM
[4]
  IC50: 100 to 300 nM

## CC(=O)c1c(C)c2cnc(Nc3ccc(N4CCNCC4)cn3)nc2n(C2CCCC2)c1=O [Palbociclib, reference compound]
[1]
  IC50: 1000 to 5000 nM
[5]; Table IE1, CDK4/6 inhibitor-based, Molt-4, 96 hours, read-out: Inhibitory activity (IC50, nM) on tumor cell proliferation, Molt-4
  IC50: 1000 to 5000 nM
[2]
  IC50: 300 to 400 nM
[3]
  IC50: 1000 to 5000 nM
[4]
  IC50: 1000 to 5000 nM
[6]; H292, 10 nM, read-out: Inhibition Rate at 10 nM (%)
  inhibition at 0.01 µM: 10 to 15%
[6]; H292, 500 nM, read-out: Inhibition Rate at 500 nM (%)
  inhibition at 0.5 µM: 25 to 30%

## CC1(C)CCC(c2ccc(Cl)cc2)=C(CN2CCN(c3ccc(C(=O)NS(=O)(=O)c4ccc(N[C@H](CCN5CC6CCC5CN6Cc5ccc6c(c5)C(=O)N(N5CCC(=O)NC5=O)C6=O)CSc5ccccc5)c(S(=O)(=O)C(F)(F)F)c4)cc3)CC2)C1 (stereo partly drawn) [GT-07815, 4-(4-((4′-chloro-4,4-dimethyl-3,4,5,6-tetrahydro-[1,1′-biphenyl]-2-yl)methyl)piperazin-1-yl)-N-((4-(((2R)-4-(5-((2-(2,4-dioxotetrahydropyrimidin-1(2H)-yl)-1,3-dioxoisoindolin-5-yl)methyl)-2,5-diazabicyclo[2.2.2]octan-2-yl)-1-(phenylthio)butan-2-yl)amino)-3-((trifluoromethyl)sulfonyl)phenyl)sulfonyl)benzamide]
[5]; Homo sapiens, MOLT-4, 96 h, Table IH3, BCL-2 inhibitor-based, Molt-4, 10 nM, 96 hours, read-out: Inhibition Rate at 10 nM (%)
  inhibition at 0.01 µM: 5 to 10%
[5]; Homo sapiens, MOLT-4, 96 h, Table IH3, BCL-2 inhibitor-based, Molt-4, 500 nM, 96 hours, read-out: Inhibition Rate at 500 nM (%)
  inhibition at 0.5 µM: 80 to 100%
[3]; Homo sapiens, 96 h, Table IH2, BCL-2 inhibitor-based, 10 nM, read-out: Inhibition Rate at 10 nM (%)
  inhibition at 0.01 µM: -5 to 0%
[3]; Homo sapiens, 96 h, Table IH2, BCL-2 inhibitor-based, 500 nM, read-out: Inhibition Rate at 500 nM (%)
  inhibition at 0.5 µM: 50 to 60%
[7]; NCI-H358, 10 nM, read-out: Inhibition Rate at 10 nM (%)
  inhibition at 0.01 µM: 15 to 20%
[7]; NCI-H358, 500 nM, read-out: Inhibition Rate at 500 nM (%)
  inhibition at 0.5 µM: 30 to 40%
[8]
  Degradation of substrate protein BCL-2 (substrate protein remaining %): A (0%≤substrate protein remaining %≤80%)
